Assay results reported in patent US10967076B2, “Use of non-labeled sugars and detection by MRI for assessing tissue perfusion and metabolism” (The Johns Hopkins University, priority 2010, dated 2021).

Assays:
[1] = system: MDA-MB-231 and MCF-7 xenografts; test: steady-state glucoCEST MRI before and after D-glucose infusion in a xenograft mouse at 9.4 T; type: in vivo, mice; conditions: offset 1.2 ppm, blood glucose about 20 mM, preliminary data, FIG. 4F
Description: Tumors are generally characterized by rapid glucose metabolism, increased tissue blood volume, and increased permeability to extravascular extracellular space (EES). We applied glucose infusion in vivo on xenografts in mice for two human breast cancer lines: less aggressive (MCF-7) and highly aggressive and metastatic (MDA-MB-231). Our MRI protocol used normal D-glucose (non-radioactive, non-hyperpolarized and not labeled with magnetic isotopes) and monitored this using glucose-based chemical exchange saturation transfer (glucoCEST) MRI. Images were compared with perfusion as assessed by dynamic contrast-enhanced (DCE) MRI and glucose uptake as assessed by FDG-PET. In-vivo animal experiments employed female SCID mice four to six weeks old. Tumor cells were implanted orthotopically in the mammary fat pad in an aseptic surgical procedure according to Institutional Animal Care and Use Committee (IACUC) guidelines. […] Following tumor cell implants, animals were monitored until recovered from anesthesia and then checked after 6 and 12 h, then daily. […]

[2] = system: MDA-MB-231 and MCF7 xenografts; test: dynamic glucoCEST MRI during D-glucose infusion in a xenograft mouse at 11.7 T; type: in vivo; conditions: FIGS. 6A-6C
Description: FIGS. 6A-6C show results for a D-glucose infusion experiment with dynamic monitoring of the MR exchange transfer signals for a mouse with two tumor xenografts (MDA-MB-231 and MCF7) at 11.7 T for which a D-glucose infusion protocol similar to the example in FIG. 4 was used.

[3] = system: MDA-MB-231 and MCF7 xenografts; test: DCE-MRI with GdDTPA (post-Gd-DTPA difference images) of the xenograft mouse; type: in vivo
Description: We applied glucose infusion in vivo on xenografts in mice for two human breast cancer lines: less aggressive (MCF-7) and highly aggressive and metastatic (MDA-MB-231). Our MRI protocol used normal D-glucose (non-radioactive, non-hyperpolarized and not labeled with magnetic isotopes) and monitored this using glucose-based chemical exchange saturation transfer (glucoCEST) MRI. Images were compared with perfusion as assessed by dynamic contrast-enhanced (DCE) MRI and glucose uptake as assessed by FDG-PET. In-vivo animal experiments employed female SCID mice four to six weeks old. Tumor cells were implanted orthotopically in the mammary fat pad in an aseptic surgical procedure according to Institutional Animal Care and Use Committee (IACUC) guidelines. For cell implantation in the mammary fat pad, mice were anesthetized with ketamine and acepromazine (6.25 mg/kg and 62.5 mg/kg) injected in a volume of 0.05 ml using a sterile insulin syringe (28.5 G needle), and a cell suspension containing 1×10^6 MDA-MB-231 cells in 0.05 ml of Hanks balanced salt solution was injected into the upper right thoracic mammary fat pad using a sterile insulin syringe (28.5 G needle). […] Following tumor cell implants, animals were monitored until recovered from anesthesia and then checked after 6 and 12 h, then daily. […]

[4] = system: MDA-MB-231 and MCF-7 xenografts; test: 18F-FDG-PET of the xenograft mouse; type: in vivo; conditions: 1 hr post-injection, FIG. 5B
Description: We applied glucose infusion in vivo on xenografts in mice for two human breast cancer lines: less aggressive (MCF-7) and highly aggressive and metastatic (MDA-MB-231). Our MRI protocol used normal D-glucose (non-radioactive, non-hyperpolarized and not labeled with magnetic isotopes) and monitored this using glucose-based chemical exchange saturation transfer (glucoCEST) MRI. Images were compared with perfusion as assessed by dynamic contrast-enhanced (DCE) MRI and glucose uptake as assessed by FDG-PET. In-vivo animal experiments employed female SCID mice four to six weeks old. Tumor cells were implanted orthotopically in the mammary fat pad in an aseptic surgical procedure according to Institutional Animal Care and Use Committee (IACUC) guidelines. For cell implantation in the mammary fat pad, mice were anesthetized with ketamine and acepromazine (6.25 mg/kg and 62.5 mg/kg) injected in a volume of 0.05 ml using a sterile insulin syringe (28.5 G needle), and a cell suspension containing 1×10^6 MDA-MB-231 cells in 0.05 ml of Hanks balanced salt solution was injected into the upper right thoracic mammary fat pad using a sterile insulin syringe (28.5 G needle). […] Following tumor cell implants, animals were monitored until recovered from anesthesia and then checked after 6 and 12 h, then daily.

In the case of `O=C[C@H](O)[C@@H](O)[C@H](O)[C@H](O)CO` [D-glucose], the “glucose uptake (MTR asymmetry histograms before and after infusion, ROIs)” value [1] is reported as “a trend towards higher glucose uptake in the malignant MDA-MB-231 tumor (ROI 1) as well as in the necrotic area in the MCF7 tumor (ROI 2)” and the “uptake (MTRasym signal changes as a function of time during infusion, rim and tumor center)” value [2] is reported as “uptake is higher in the more malignant MDA-MB-231 tumor”.
In the case of `O=C([O-])CN(CCN(CC(=O)[O-])CC(=O)O)CCN(CC(=O)[O-])CC(=O)O.[Gd+3]` [Gd-DTPA, Gadolinium-DiethyleneTriaminePentaacetic Acid], the “visualization of the tumor mass” value ([3]; 0.2 mmole/kg GdDTPA, FIG. 5C) is reported as “good visualization of the tumor mass relative to normal tissue” and the “highlighting of the necrotic area in the MCF7 tumor” value ([3]; Gd perfusion scan) is reported as “did not highlight the necrotic area in the MCF7 tumor”.
For Fluorodeoxyglucose [^18F-FDG], the “glucose uptake on PET” value [4] was “the MDA-MB-231 tumor exhibits a higher glucose uptake than the MCF-7 tumor”.
